Results reported in patent publication US9115151B2, “Substituted 2,10-dihydro-9-oxa-1,2,4A-triazaphenanthren-3-ones and uses thereof” (AbbVie Inc., priority 2012, dated 2015).

What was measured:
[1] = tested on: CD3/CD28 induced IL-2 in human T-Blasts; assay: T-Blasts CD3/CD28 induced IL-2 assay; format: cell-based; details: read-out: CD3/CD28-stimulated IL2 in T-blasts EC50
Summary of the method: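 IL-2 in supernatants read after 24 h 37° C stimulation of human PHA T-blasts (2×10^5/well) with anti-CD3/anti-CD28 at 5 μg/mL final. Duplicate eight-point, 1/3-step compound series added 30 min before stimulus; residual cells checked by MTT for toxicity.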

PKCα = biological target: T1, PKCα (Homo sapiens, UniProt P17252); assay: In vitro enzyme assay (time-resolved fluorescence kinase assay), PKCα, 100 μM ATP; format: biochemical; details: 100 μM ATP; read-out: PKCα enzyme IC50
T1 construct: His6; purchased Millipore; host or cells: baculovirus in Sf21 cells
Summary of the method: (§1)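 Read-out was time-resolved fluorescence, corrected for a minus-enzyme blank and converted to percent activity relative to enzyme without drug. They were stopped with EDTA.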

PKCθ = biological target: T2, PKCθ (Homo sapiens, UniProt Q04759); assay: In vitro enzyme assay (time-resolved fluorescence kinase assay), PKCθ, 100 μM ATP; format: biochemical
T2 construct: His6; purchased Millipore; host or cells: baculovirus in Sf21 cells
T2 sequence (Q04759 whole entry): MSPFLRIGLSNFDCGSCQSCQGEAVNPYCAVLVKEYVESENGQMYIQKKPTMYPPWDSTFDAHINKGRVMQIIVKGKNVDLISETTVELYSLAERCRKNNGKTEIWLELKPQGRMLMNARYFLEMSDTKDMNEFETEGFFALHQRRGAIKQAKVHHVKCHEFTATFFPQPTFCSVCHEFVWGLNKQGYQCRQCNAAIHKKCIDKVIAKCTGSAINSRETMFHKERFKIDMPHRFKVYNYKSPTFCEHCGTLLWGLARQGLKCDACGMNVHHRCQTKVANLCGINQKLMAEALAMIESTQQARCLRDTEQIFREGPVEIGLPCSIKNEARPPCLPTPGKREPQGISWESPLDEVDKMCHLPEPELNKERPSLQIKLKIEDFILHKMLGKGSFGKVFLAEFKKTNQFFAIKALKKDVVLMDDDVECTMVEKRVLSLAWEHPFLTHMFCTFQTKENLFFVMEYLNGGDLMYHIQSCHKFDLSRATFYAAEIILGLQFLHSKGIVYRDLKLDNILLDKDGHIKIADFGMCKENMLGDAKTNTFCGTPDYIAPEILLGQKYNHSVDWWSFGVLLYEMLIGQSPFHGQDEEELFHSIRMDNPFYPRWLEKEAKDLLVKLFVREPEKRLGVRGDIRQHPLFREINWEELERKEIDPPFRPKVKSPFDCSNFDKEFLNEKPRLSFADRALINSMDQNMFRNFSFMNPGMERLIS
Summary of the method: as §1

Row | EC50 [1] [nM] | IC50 (PKCα) [nM] | IC50 (PKCθ) [nM] | SMILES
1 | < 250 | 1000 to 10000 | 250 to 1000 | CC1C(=O)NN=C2COc3cc(-c4ccc(N(C)C)cc4)c(NC4CNC4)cc3N21 (racemic) [Example 19]
2 | < 250 | 250 to 1000 | < 250 | C[C@@H]1CN(C)CCN1c1cc2c(cc1-c1ccccc1F)OCC1=NNC(=O)[C@@H](C)N12 [Example 230]
3 | 250 to 1000 | 1000 to 10000 | < 250 | C[C@@H]1C(=O)NN=C2COc3cc(-c4ccccc4C(C)(C)O)c([C@@H](C)C4(C)CN(C)C4)cc3N21 [Example 137, (R)-6-[(R)-1-(1,3-Dimethyl-azetidin-3-yl)-ethyl]-7-[2-(1-hydroxy-1-methyl-ethyl)-phenyl]-4-methyl-2,10-dihydro-9-oxa-1,2,4a-triaza-phenanthren-3-one]
4 | < 250 | 1000 to 10000 | 250 to 1000 | CC1C(=O)NN=C2COc3cc(-c4cccc(C(F)(F)F)c4)c(NC4CNC4)cc3N21 (racemic) [Example 24]
5 | < 250 | 250 to 1000 | < 250 | Cc1cn(C2(C)CNC2)c2cc3c(cc12)OCC1=NNC(=O)[C@@H](C)N13 [Example 157]
6 | 250 to 1000 | 1000 to 10000 | < 250 | CC1C(=O)NN=C2COc3cc(Br)c(NC4CNC4)cc3N21 (stereo not drawn) [Example 85, 6-(Azetidin-3-ylamino)-7-bromo-4-methyl-2,10-dihydro-9-oxa-1,2,4a-triaza-phenanthren-3-one trifluoroacetic acid]
7 | 1000 to 10000 | 1000 to 10000 | 250 to 1000 | CC1CNCCC1c1ccc2c(c1)N1C(=NNC(=O)C1C)CO2 (stereo not drawn) [Example 73]
8 | 250 to 1000 | 1000 to 10000 | < 250 | CC1C(=O)NN=C2COc3cc4ccn(C5CN(C)C5)c4cc3N21 (stereo not drawn) [compound 161]
9 | < 250 | 1000 to 10000 | < 250 | C[C@@H]1C(=O)NN=C2COc3cc(-c4ccccc4)c(NC4CNC4)cc3N21 (single isomer, unassigned) [Example 1-1, trifluoroacetic acid]
10 | 250 to 1000 | 1000 to 10000 | < 250 | CC1C(=O)NN=C2COc3cc(-c4ccc(C#N)cc4)c(N(C)C4(C)CN(C)C4)cc3N21 (stereo not drawn) [Example 174]
11 | < 250 | 1000 to 10000 | < 250 | CC(C)c1cc2c(cc1C1CCNCC1)N1C(=NNC(=O)[C@H]1C)CO2 [Example 208]
12 | < 250 | 1000 to 10000 | < 250 | CC(C)c1cc2c(cc1NC1CNC1)N1C(=NNC(=O)[C@H]1C)CO2 (single isomer, unassigned) [Example 57-1, trifluoroacetic acid]
13 | < 250 | 250 to 1000 | < 250 | C[C@@H]1C(=O)NN=C2COc3cc4ccn([C@H]5CCNC5)c4cc3N21 [Example 151-1, (R)-1-Methyl-10-(S)-pyrrolidin-3-yl-3,5-dihydro-10H-6-oxa-3,4,10,11b-tetraaza-cyclopenta[b]phenanthren-2-one hydrochloric acid]
14 | < 250 | 250 to 1000 | < 250 | CC(C)c1cc2c(cc1OC1(C)CNC1)N1C(=NNC(=O)C1C)CO2 (stereo not drawn) [Example 82, 7-Isopropyl-4-methyl-6-(3-methyl-azetidin-3-yloxy)-2,10-dihydro-9-oxa-1,2,4a-triaza-phenanthren-3-one trifluoroacetic acid]
15 | 250 to 1000 | 1000 to 10000 | < 250 | COc1ccc(-c2cc3c(cc2NC2CNC2)N2C(=NNC(=O)C2C)CO3)cc1 (racemic) [Example 30]
16 | < 250 | < 250 | < 250 | C[C@@H]1C(=O)NN=C2COc3cc(-c4ccccc4F)c([C@@H](C)C4(C)CNC4)cc3N21 [Example 146, (R)-7-(2-Fluoro-phenyl)-4-methyl-6-[(R)-1-(3-methyl-azetidin-3-yl)-ethyl]-2,10-dihydro-9-oxa-1,2,4a-triaza-phenanthren-3-one]
17 | 250 to 1000 | 1000 to 10000 | < 250 | C[C@@H]1C(=O)NN=C2COc3cc(-c4ccccc4F)c([C@@H]4CCCNCC4)cc3N21 [Example 218]
18 | < 250 | 1000 to 10000 | < 250 | Cc1ccc(-c2cc3c(cc2NC2CNC2)N2C(=NNC(=O)C2C)CO3)c(F)c1 (racemic) [Example 12]
19 | 1000 to 10000 | 1000 to 10000 | 250 to 1000 | CC1C(=O)NN=C2COc3cc(F)c(OC4CNC4)cc3N21 (stereo not drawn) [Example 123, 9-(Azetidin-3-yloxy)-8-fluoro-1-methyl-3,5-dihydrobenzo[5,6][1,4]oxazino[3,4-c][1,2,4]triazin-2(1H)-one trifluoroacetic acid]
20 | < 250 | < 250 | < 250 | C[C@H](O)CN1CC(C)(N(C)c2cc3c(cc2-c2ccccc2F)OCC2=NNC(=O)[C@@H](C)N23)C1 [Example 188]

Row | EC50 [1] [nM] | IC50 (PKCα) [nM] | IC50 (PKCθ) [nM] | SMILES
21 | < 250 | 250 to 1000 | < 250 | C[C@@H]1C(=O)NN=C2COc3cc(-c4cccc(CO)c4)c(N(C)C4(C)CN(C)C4)cc3N21 [Example 179]
22 | 250 to 1000 | 1000 to 10000 | 250 to 1000 | CC1C(=O)NN=C2COc3cc(-c4ccc(C#N)cc4)c(NC4CNC4)cc3N21 (racemic) [Example 41]
23 | < 250 | 1000 to 10000 | < 250 | CC1C(=O)NN=C2COc3ccc(C4CCNCC4)cc3N21 (stereo not drawn) [Example 71, 4-Methyl-6-piperidin-4-yl-2,10-dihydro-9-oxa-1,2,4a-triaza-phenanthren-3-one trifluoroacetic acid]
24 | 250 to 1000 | 250 to 1000 | < 250 | CC(C)c1cc2c(cc1[C@@H](C)C1(C)CN(CCO)C1)N1C(=NNC(=O)[C@H]1C)CO2 [Example 138, (R)-6-{(R)-1-[1-(2-Hydroxy-ethyl)-3-methyl-azetidin-3-yl]-ethyl}-7-isopropyl-4-methyl-2,10-dihydro-9-oxa-1,2,4a-triaza-phenanthren-3-one hydrochloric acid]
25 | < 250 | 1000 to 10000 | < 250 | CC1C(=O)NN=C2COc3ccc(CC4CNC4)cc3N21 (stereo not drawn) [Example 78, 6-Azetidin-3-ylmethyl-4-methyl-2,10-dihydro-9-oxa-1,2,4a-triaza-phenanthren-3-one trifluoroacetic acid]
26 | 250 to 1000 | 1000 to 10000 | < 250 | CC1C(=O)NN=C2COc3cc4ccn(C5CNC5)c4cc3N21 (stereo not drawn) [Example 103, 10-(Azetidin-3-yl)-1-methyl-5,10-dihydro-1H-[1,2,4]triazino[4′,3′:4,5][1,4]oxazino[2,3-f]indol-2(3H)-one trifluoroacetic acid]
27 | < 250 | 1000 to 10000 | < 250 | C[C@@H]1C(=O)NN=C2COc3cc(-c4ccccc4F)c([C@@H]4CCNC4)cc3N21 [Example 215]
28 | 250 to 1000 | 1000 to 10000 | < 250 | CC1C(=O)NN=C2COc3cc(C(F)(F)F)c(C4CCNC(Cc5ccccc5)C4)cc3N21 (stereo not drawn) [Example 116, 9-(2-Benzylpiperidin-4-yl)-1-methyl-8-(trifluoromethyl)-3,5-dihydrobenzo[5,6][1,4]oxazino[3,4-c][1,2,4]triazin-2(1H)-one trifluoroacetic acid]
29 | 250 to 1000 | 1000 to 10000 | < 250 | CC1C(=O)NN=C2COc3cc(-c4cccc(C#N)c4)c(NC4CNC4)cc3N21 (racemic) [Example 39]
30 | < 250 | 1000 to 10000 | < 250 | Cc1cc2c(cc1OC1CNC1)N1C(=NNC(=O)C1C)CO2 (stereo not drawn) [Example 67]
31 | < 250 | 250 to 1000 | < 250 | CC(C)N1CC(C)(N(C)c2cc3c(cc2-c2ccccc2)OCC2=NNC(=O)C(C)N23)C1 (stereo not drawn) [Example 91]
32 | < 250 | 250 to 1000 | < 250 | CC1C(=O)NN=C2COc3cc(-c4ccc(F)cc4)c(N(C)C4(C)CN(C)C4)cc3N21 (stereo not drawn) [Example 168]
33 | 250 to 1000 | 1000 to 10000 | < 250 | C[C@@H]1CN(CCO)CC[C@@H]1c1cc2c(cc1-c1ccccc1F)OCC1=NNC(=O)[C@@H](C)N12 [Example 207]
34 | 250 to 1000 | 1000 to 10000 | < 250 | C[C@@H]1C(=O)NN=C2COc3cc(-c4ccccc4F)c(N(C)C4(C)CN(CCC(F)(F)F)C4)cc3N21 [Example 193]
35 | < 250 | 1000 to 10000 | < 250 | CC1C(=O)NN=C2COc3cc(-c4ccc(F)c(F)c4)c(NC4CNC4)cc3N21 (racemic) [Example 23]
36 | 1000 to 10000 | 1000 to 10000 | 250 to 1000 | CC(C)c1cc2c(cc1NC1CNC1)N1C(=NNC(=O)[C@@H]1C)CO2 (single isomer, unassigned) [Example 57-2, trifluoroacetic acid]
37 | < 250 | 1000 to 10000 | < 250 | CC1C(=O)NN=C2COc3ccc(C4CCNC(Cc5ccccc5)C4)cc3N21 (stereo not drawn) [Example 86, 9-(2-Benzylpiperidin-4-yl)-1-methyl-3,5-dihydrobenzo[5,6][1,4]oxazino[3,4-c][1,2,4]triazin-2(1H)-one trifluoroacetic acid]
38 | < 250 | 250 to 1000 | < 250 | C[C@@H]1CN(C)CC[C@@H]1c1cc2c(cc1-c1ccccc1CO)OCC1=NNC(=O)[C@@H](C)N12 [Example 205]
39 | < 250 | 1000 to 10000 | < 250 | Cc1cc2c(cc1OC1(C)CNC1)N1C(=NNC(=O)C1C)CO2 (stereo not drawn) [Example 83, 4,7-Dimethyl-6-(3-methyl-azetidin-3-yloxy)-2,10-dihydro-9-oxa-1,2,4a-triaza-phenanthren-3-one trifluoroacetic acid]
